The values that follow come from US20050058614A1, “Methods for the treatment of gray hair using cyclopentane(ene) heptan(en)oic acid amides” (Allergan, Inc., priority 2003, published 2005).

The nature of data set [1]: untoward effects during the observation period. In kind it is in vivo, human. The settings on record: healthy person, oral, same dose as Example 1. From the text: (§1) A healthy subject with normal blood pressure volunteers to take the medicine for observation on hair growth promoting activity at the same dose reported in Example 1. Before taking the medicine they have few hairs left in the frontoparietal area of the head. Three months after taking the medicine, they begin to note an increase of hair density in the affected area. […] The response to the medicine is more sensitive in areas with most recent hair loss. […] The observation is terminated at the end of six months.
A healthy person with normal blood pressure volunteers to take the medicine for the same observation as in Example 2 at the dose described above. Their hair condition is normal with no baldness. During the six month testing period, they collect in intervals the hair samples from regular daily combing. Before the testing and during the first month of testing, the hair samples collected have two types, namely completely dark brown or completely gray. At around 50 days into the testing period, a new type of hair, partly dark brown and partly gray, begins to appear in the hair samples; they represent about 3% of the gray hairs. In this subject, the gray hairs represent about 25% of their total hairs in the samples collected. It is noted that the dark brown part of the new type of hair is always associated with the lower part of the hair shaft. […]

Data set [2] has as its system hair in the frontoparietal area of the head. As to the kind of experiment: observation on hair growth promoting activity on oral bimatoprost. In kind it is in vivo, human. The settings on record: healthy person.
Excerpt: as §1

A further data set deals with eyelashes. The settings on record: Lumigan ophthalmic solution applied in the FDA approved manner; cited from earlier work.
The subject of a further data set is gray hair. As to the kind of experiment: conversion of gray hair to original pigment on oral bimatoprost in human subjects. It is filed as in vivo. From the text:
A patient began taking bimatoprost as a tablet. […] A healthy person with normal blood pressure volunteers to take the medicine for the same observation as in Example 2 at the dose described above. Their hair condition is normal with no baldness. During the six month testing period, they collect in intervals the hair samples from regular daily combing. Before the testing and during the first month of testing, the hair samples collected have two types, namely completely dark brown or completely gray. At around 50 days into the testing period, a new type of hair, partly dark brown and partly gray, begins to appear in the hair samples; they represent about 3% of the gray hairs. In this subject, the gray hairs represent about 25% of their total hairs in the samples collected. It is noted that the dark brown part of the new type of hair is always associated with the lower part of the hair shaft. This is easily identifiable because the hair follicles are distinguishable at one end of hair shafts. The quality and thickness of the new type of hair is very similar to the other types of hairs of this subject. The ratio of length of the dark brown part to that of the gray part of the new type of hair varies from 1:5 to 4:1 in the samples collected during the five-month period. This varying ratio may reflect the stages of the growth cycle of each hair follicle examined. The observation was discontinued at the end of five months.

For `CCNC(=O)CCC/C=C\C[C@@H]1[C@@H](/C=C/[C@@H](O)CCc2ccccc2)[C@H](O)C[C@@H]1O` [bimatoprost, cyclopentane N-ethyl heptanamide-5-cis-2-(3α-hydroxy-5-phenyl-1-trans-pentenyl)-3,5-dihydroxy, [1α,2β,3α,5α]], the untoward effects entry in data set [1] (observation discontinued at five months) is reported as “No untoward effects were reported”; in data set [1] (six months observation) it was “does not experience any untoward effects”. In data set [2] (few hairs in frontoparietal area, same dose as Example 1), the “time until increase of hair density in the affected area is noted” value is recorded as “Three”. In addition, the “colour of the newly grown hairs in the affected area” value in data set [2] (same dose as Example 1) is on record as “mostly dark brown”. In addition, the “overall increase of the hair density in the affected area” value in data set [2] (same dose as Example 1, six months) was “very significant”. Also, in data set [2] (same dose as Example 1, three to six months of the testing period), the hair cut frequency result was “increase the hair cut frequency to once a month from once every two months”. In the data set on eyelashes, the growth of eyelashes entry was “effective to increase the growth of eyelashes”. The “time until new type of hair, partly dark brown and partly gray, appears in hair samples” value with gray hair (healthy person, no baldness, oral, same dose as Example 1, hair samples from daily combing) is recorded as “around 50 days”. Further, the “new type of hair (partly dark brown, partly gray) as share of the gray hairs” value in the data set with gray hair (healthy person, oral, same dose as Example 1, gray hairs about 25% of total hairs) is on record as “about 3%”. Besides, the “gray hairs turned into the original pigment” value in the data set on gray hair (patient, oral tablet 2 x 100 mg per dose, 3 doses per day, four months) is “a significant portion of their gray hairs had gradually turned into the original pigment or dark brown color”.
